# Laboratory results reported in the NIST ThermoML archive (doi:10.1021/acs.jced.8b01204).
# ± gives the expanded uncertainty stated by the source.
# Columns and labels:
# [1] = 101 kPa, Liquid; for speed of sound: Single path-length method; for mass density: Vibrating tube method
# [2] = xn = mol fraction of the nth substance listed; details: 101 kPa, Liquid, x2 = 0; for speed of sound: Single path-length method; for mass density: Vibrating tube method
Compound,speed of sound ([1]; 293.15 K),mass density ([1]; 293.15 K),speed of sound ([1]; 298.15 K),mass density ([1]; 298.15 K),speed of sound ([1]; 303.15 K),mass density ([1]; 303.15 K),speed of sound ([1]; 308.15 K),mass density ([1]; 308.15 K),speed of sound ([1]; 313.15 K),mass density ([1]; 313.15 K),speed of sound ([2]; 293.15 K),mass density ([2]; 293.15 K),speed of sound ([2]; 298.15 K),mass density ([2]; 298.15 K),speed of sound ([2]; 303.15 K),mass density ([2]; 303.15 K),speed of sound ([2]; 308.15 K),mass density ([2]; 308.15 K),speed of sound ([2]; 313.15 K),mass density ([2]; 313.15 K)
C[N+]1(CC2CO2)CCCC1=O.O=C([O-])c1ccccc1O (stereo not given) [1-methyl-1-(oxiran-2-ylmethyl)-2-oxopyrrolidinium salicylate],1634.2 ± 6.3 m/s,1209.8 ± 3.2 kg/m3,1614.5 ± 6.3 m/s,1205.5 ± 3.2 kg/m3,1595.7 ± 6.3 m/s,1201.3 ± 3.2 kg/m3,1577.6 ± 6.3 m/s,1197.2 ± 3.2 kg/m3,1559.5 ± 6.3 m/s,1193 ± 3.2 kg/m3,,,,,,,,,,
CCC(=O)O [propanoic acid] + C[N+]1(CC2CO2)CCCC1=O.O=C([O-])c1ccccc1O,,,,,,,,,,,1166.3 ± 6.1 m/s,993.8 ± 3 kg/m3,1148.1 ± 6.1 m/s,988.4 ± 3 kg/m3,1129.7 ± 6.1 m/s,983 ± 3 kg/m3,1111.3 ± 6.1 m/s,977.6 ± 3 kg/m3,1092.8 ± 6.1 m/s,972.2 ± 3 kg/m3
CCC(=O)O [propanoic acid],1166.3 ± 6.1 m/s,993.8 ± 3 kg/m3,1148.1 ± 6.1 m/s,988.4 ± 3 kg/m3,1129.7 ± 6.1 m/s,983 ± 3 kg/m3,1111.3 ± 6.1 m/s,977.6 ± 3 kg/m3,1092.8 ± 6.1 m/s,972.2 ± 3 kg/m3,,,,,,,,,,
CC(=O)O [acetic acid],1159.3 ± 6.1 m/s,1052.5 ± 3 kg/m3,1142.8 ± 6.1 m/s,1046.9 ± 3 kg/m3,1126.3 ± 6.1 m/s,1041.4 ± 3 kg/m3,1109.6 ± 6.1 m/s,1035.8 ± 3 kg/m3,1094.8 ± 6.1 m/s,1030 ± 3 kg/m3,,,,,,,,,,
CC(=O)O [acetic acid] + C[N+]1(CC2CO2)CCCC1=O.O=C([O-])c1ccccc1O,,,,,,,,,,,1159.3 ± 6.1 m/s,1052.5 ± 3 kg/m3,1142.8 ± 6.1 m/s,1046.9 ± 3 kg/m3,1126.3 ± 6.1 m/s,1041.4 ± 3 kg/m3,1109.6 ± 6.1 m/s,1035.8 ± 3 kg/m3,1094.8 ± 6.1 m/s,1030 ± 3 kg/m3
